Results published in patent US12459951B2, “Compounds that interact with RAS superfamily proteins for treatment of cancers, inflammatory diseases, rasopathies, and fibrotic disease” (SHY Therapeutics, LLC, priority 2022, dated 2025).

Key:
[1] = test system: Smad2/Smad3 phosphorylation; assay: Phospho-Smad2/3 Inhibition Assay (western blot), Panc-1; type: cell-based, human; conditions: at 10 μM, Panc-1 pancreatic cancer cell line; starred symbols = activation
How it was run: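 Western blotting of lysates (15-50 μg protein) read phosphorylation of Smad2 Ser465/467 and Smad3 Ser423/425. Before lysis, Panc-1 cells got 1 h of 10 ng/ml TGF-b1 following 3 h compound exposure at 37° C (10 μM final, or serial dilutions for IC50, 0.3% DMSO) after overnight 0.5% FBS starvation.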

TNF-alpha = TNF-alpha Quantification Assay (ELISA), LPS-stimulated RAW 264.7; type: cell-based; conditions: Mus musculus, RAW264.7; at 10 μM; read-out: TNFα: % inh.

Structure (SMILES)	% inh of Smad2/3 phosphorylation in Panc-1 [1]	inhibition at 10 µM (TNF-alpha)
Cc1c(-c2ccn(C)n2)cn2nc(-c3nccn3C)nc(Nc3ccc(N4CCCC4)cn3)c12 [Compound 228, 5-Methyl-2-(1-methyl-1H-imidazol-2-yl)-6-(1-methyl-1H-pyrazol-3-yl)-N-(5-(pyrrolidin-1-yl)pyridin-2-yl)pyrrolo[2,1-f][1,2,4]triazin-4-amine]	0 (0 = 0% inhibition)	1 to 24%
CO[C@H]1CC[C@H](Nc2nc(-c3nccn3C)nn3cc(-c4ccn(C)n4)c(C(=O)NCC(F)(F)F)c23)C1 (racemic) [Compound 181, 4-(((1S,3S)-3-Methoxycyclopentyl)amino)-2-(1-methyl-1H-imidazol-2-yl)-6-(1-methyl-1H-pyrazol-3-yl)-N-(2,2,2-trifluoroethyl)pyrrolo[2,1-f][1,2,4]triazine-5-carboxamide]	A (A = 1-25% inhibition)	1 to 24%
COc1ccnc(Nc2nc(-c3nccn3C)nn3cc(-c4ccn(C)n4)c(C(=O)N4CCOCC4)c23)c1 [Compound 179, (4-((4-Methoxypyridin-2-yl)amino)-2-(1-methyl-1H-imidazol-2-yl)-6-(1-methyl-1H-pyrazol-3-yl)pyrrolo[2,1-f][1,2,4]triazin-5-yl)(morpho-lino)methanone]	C* (C* = 46-75% activation)	0%
Cc1c(-c2ccn(C)n2)cn2nc(-c3nccn3C)nc(Nc3ccc(-n4ccnc4)cn3)c12 [Compound 242, N-(5-(1H-Imidazol-1-yl)pyridin-2-yl)-5-methyl-2-(1-methyl-1H-imidazol-2-yl)-6-(1-methyl-1H-pyrazol-3-yl)pyrrolo[2,1-f][1,2,4]triazin-4-amine]	A (A = 1-25% inhibition)	0%
Cc1c(-c2ccn(C)n2)cn2nc(-c3nccn3C)nc(Nc3ccc(-n4ccnc4C)cn3)c12 [Compound 243, 5-Methyl-N-(5-(2-methyl-1H-imidazol-1-yl)pyridin-2-yl)-2-(1-methyl-1H-imidazol-2-yl)-6-(1-methyl-1H-pyrazol-3-yl)pyrrolo[2,1-f][1,2,4]triazin-4-amine]	A* (A* = 1-25% activation)	0%
CO[C@H]1CC[C@H](Nc2nc(-c3nccn3C)nn3cc(-c4ccn(C)n4)c(C(=O)NCCN4CCOCC4)c23)C1 (racemic) [Compound 185, rac 4-(((1S,3S)-3-methoxycyclo-pentyl)amino)-2-(1-methyl-1H-imidazol-2-yl)-6-(1-methyl-1H-pyrazol-3-yl)-N-(2-morpholino-ethyl)pyrrolo[2,1-f][1,2,4]triazine-5-carboxamide]	B* (B* = 26-45% activation)	25 to 49%
COCCNC(=O)c1c(-c2ccn(C)n2)cn2nc(-c3nccn3C)nc(Nc3cc(OC)ccn3)c12 [Compound 176, N-(2-Methoxyethyl)-4-((4-methoxypyridin-2-yl)amino)-2-(1-methyl-1H-imidazol-2-yl)-6-(1-methyl-1H-pyrazol-3-yl)pyrrolo[2,1-f][1,2,4]triazine-5-carboxamide]	B (B = 26-45% inhibition)	0%
Cc1c(-c2ccn(C)n2)cn2nc(-c3nccn3C)nc(Nc3ccc(C(F)F)cn3)c12 [Compound 234, N-(5-(Difluoromethyl)pyridin-2-yl)-5-methyl-2-(1-methyl-1H-imidazol-2-yl)-6-(1-methyl-1H-pyrazol-3-yl)pyrrolo[2,1-f][1,2,4]triazin-4-amine]	D (D = 76-100% inhibition)	1 to 24%
CO[C@H]1CC[C@H](Nc2nc(-c3nccn3C)nn3cc(-c4ccn(C)n4)c(C(=O)NC4CC4)c23)C1 (racemic) [Compound 182, rac N-Cyclopropyl-4-(((1S,3S)-3-methoxycyclo-pentyl)amino)-2-(1-methyl-1H-imidazol-2-yl)-6-(1-methyl-1H-pyrazol-3-yl)pyrrolo[2,1-f][1,2,4]triazine-5-carboxamide]	A* (A* = 1-25% activation)	1 to 24%
Cc1c(-c2ccn(C)n2)cn2nc(-c3nccn3C)nc(Nc3ccc(C(C)(C)O)cn3)c12 [Compound 241, 2-(6-((5-Methyl-2-(1-methyl-1H-imidazol-2-yl)-6-(1-methyl-1H-pyrazol-3-yl)pyrrolo[2,1-f][1,2,4]triazin-4-yl)amino)pyridin-3-yl)propan-2-ol]	C* (C* = 46-75% activation)	1 to 24%
Cc1c(-c2ccn(C)n2)cn2nc(-c3nccn3C)nc(Nc3ccc(OC(F)F)cn3)c12 [Compound 231, N-(5-(Difluorometh-oxy)pyridin-2-yl)-5-methyl-2-(1-methyl-1H-imidazol-2-yl)-6-(1-methyl-1H-pyrazol-3-yl)pyrrolo[2,1-f][1,2,4]triazin-4-amine]	D (D = 76-100% inhibition)	0%
COc1ccc(N(C)c2nc(-c3nccn3C)nn3cc(-c4ccn(C)n4)c(C)c23)nc1 [Compound 225, N-(5-Methoxypyridin-2-yl)-N,5-dimethyl-2-(1-methyl-1H-imidazol-2-yl)-6-(1-methyl-1H-pyrazol-3-yl)pyrrolo[2,1-f][1,2,4]triazin-4-amine]	0 (0 = 0% inhibition)	0%
COc1ccnc(N(C)c2nc(-c3nccn3C)nn3cc(-c4ccn(C)n4)c(C)c23)c1 [Compound 223, N-(4-Methoxypyridin-2-yl)-N,5-dimethyl-2-(1-methyl-1H-imidazol-2-yl)-6-(1-methyl-1H-pyrazol-3-yl)pyrrolo[2,1-f][1,2,4]triazin-4-amine]	B (B = 26-45% inhibition)	1 to 24%
Cc1c(-c2ccn(C)n2)cn2nc(-c3nccn3C)nc(Nc3ccc(C(F)(F)F)cn3)c12 [Compound 233, 5-Methyl-2-(1-methyl-1H-imidazol-2-yl)-6-(1-methyl-1H-pyrazol-3-yl)-N-(5-(trifluoromethyl)pyridin-2-yl)pyrrolo[2,1-f][1,2,4]triazin-4-amine]	B (B = 26-45% inhibition)	1 to 24%
Cc1c(-c2ccn(C)n2)cn2nc(-c3nccn3C)nc(N)c12 [Compound 211, 5-Methyl-2-(1-methyl-1H-imidazol-2-yl)-6-(1-methyl-1H-pyrazol-3-yl)pyrrolo[2,1-f][1,2,4]triazin-4-amine]	D (D = 76-100% inhibition)	0%
COc1cccc(-c2cn3nc(-c4nccn4C)nc(N[C@H]4C[C@H](OC)C4)c3c2-c2ccccc2)c1OC [Compound 219, 6-(2,3-Dimethoxyphenyl)-N-((1r,3r)-3-methoxycyclobutyl)-2-(1-methyl-1H-imidazol-2-yl)-5-phenylpyrrolo[2,1-f][1,2,4]triazin-4-amine]	D (D = 76-100% inhibition)	75 to 100%
COc1ccnc(Nc2nc(-c3nccn3C)nn3cc(-c4ccn(C)n4)c(C(=O)NCCN(C)C)c23)c1 [Compound 177, N-(2-(Dimethylamino)ethyl)-4-((4-methoxypyridin-2-yl)amino)-2-(1-methyl-1H-imidazol-2-yl)-6-(1-methyl-1H-pyrazol-3-yl)pyrrolo[2,1-f][1,2,4]triazine-5-carboxamide]	A (A = 1-25% inhibition)	0%
COCCCNC(=O)c1c(-c2ccn(C)n2)cn2nc(-c3nccn3C)nc(N[C@H]3CC[C@H](OC)C3)c12 (racemic) [Compound 184, rac 4-(((1S,3S)-3-methoxycyclo-pentyl)amino)-N-(3-methoxypropyl)-2-(1-methyl-1H-imidazol-2-yl)-6-(1-methyl-1H-pyrazol-3-yl)pyrrolo[2,1-f][1,2,4]triazine-5-carboxamide]	B* (B* = 26-45% activation)	25 to 49%
CO[C@H]1C[C@H](Nc2nc(-c3nccn3C)nn3cc(-c4cccnc4)c(-c4cccnc4)c23)C1 [Compound 171, N-((1r,3r)-3-Methoxycyclobutyl)-2-(1-methyl-1H-imidazol-2-yl)-5,6-di(pyridin-3-yl)pyrrolo[2,1-f][1,2,4]triazin-4-amine]	B (B = 26-45% inhibition)	0%
Cc1c(-c2ccn(C)n2)cn2nc(-c3nccn3C)nc(Nc3cc(C(C)(C)O)ccn3)c12 [Compound 240, 2-(2-((5-Methyl-2-(1-methyl-1H-imidazol-2-yl)-6-(1-methyl-1H-pyrazol-3-yl)pyrrolo[2,1-f][1,2,4]triazin-4-yl)amino)pyridin-4-yl)propan-2-ol]	0 (0 = 0% inhibition)	0%
Cc1c(-c2ccn(C)n2)cn2nc(-c3nccn3C)nc(Nc3ccc(OC(F)(F)F)cn3)c12 [Compound 232, 5-Methyl-2-(1-methyl-1H-imidazol-2-yl)-6-(1-methyl-1H-pyrazol-3-yl)-N-(5-(trifluoro-methoxy)pyridin-2-yl)pyrrolo[2,1-f][1,2,4]triazin-4-amine]	B (B = 26-45% inhibition)	1 to 24%
Cc1c(-c2ccn(C)n2)cn2nc(-c3nccn3C)nc(Nc3ccc(OCC(F)(F)F)cn3)c12 [Compound 230, 5-Methyl-2-(1-methyl-1H-imidazol-2-yl)-6-(1-methyl-1H-pyrazol-3-yl)-N-(5-(2,2,2-trifluoroethoxy)pyridin-2-yl)pyrrolo[2,1-f][1,2,4]triazin-4-amine]	D (D = 76-100% inhibition)	1 to 24%
COc1ccnc(Nc2nc(-c3nccn3C)nn3cc(-c4ccn(C)n4)c(C(=O)NCC(F)(F)F)c23)c1 [Compound 174, 4-((4-Methoxypyridin-2-yl)amino)-2-(1-methyl-1H-imidazol-2-yl)-6-(1-methyl-1H-pyrazol-3-yl)-N-(2,2,2-trifluoro-ethyl)pyrrolo[2,1-f][1,2,4]triazine-5-carboxamide]	A* (A* = 1-25% activation)	0%
